experiment: Partition coefficient, logD of the compound in 1,9-decadiene and phosphate buffer at pH 7.4 measured after 30 mins under shaking condition by LC-MS analysis; format: physicochemical; conditions: not given

Point of comparison: `Cc1ncsc1-c1ccc(CNC(=O)[C@@H]2C[C@@H](O)CN2C(=O)[C@@H](NC(=O)COCCOCCOCCNC(=O)C[C@@H]2N=C(c3ccc(Cl)cc3)c3c(sc(C)c3C)-n3c(C)nnc32)C(C)(C)C)cc1`, logD hydrocarbon water at 0.5 h -1.6. Against it:
- CC(=O)N[C@H](C(=O)N1C[C@H](O)C[C@H]1C(=O)NCc1ccc(-c2scnc2C)cc1)C(C)(C)SCCOCCNC(=O)C[C@@H]1N=C(c2ccc(Cl)cc2)c2c(sc(C)c2C)-n2c(C)nnc21 — lower, -3.8
- Cc1ncsc1-c1ccc(CNC(=O)[C@@H]2C[C@@H](O)CN2C(=O)[C@@H](NC(=O)COCCOCCOCCOCC(=O)N[C@H](C(=O)N2C[C@H](O)C[C@H]2C(=O)NCc2ccc(-c3scnc3C)cc2)C(C)(C)C)C(C)(C)C)cc1 — lower, -3.8
- Cc1ncsc1-c1ccc(CNC(=O)[C@@H]2C[C@@H](O)CN2C(=O)[C@@H](NC(=O)COCCOCCNC(=O)C[C@@H]2N=C(c3ccc(Cl)cc3)c3c(sc(C)c3C)-n3c(C)nnc32)C(C)(C)C)cc1 — higher, -1.1
- CC(=O)N1c2ccc(-c3ccc(C(=O)NCCOCCOCC(=O)N[C@H](C(=O)N4C[C@H](O)C[C@H]4C(=O)NCc4ccc(-c5scnc5C)cc4)C(C)(C)C)cc3)cc2[C@H](Nc2ccc(Cl)cc2)C[C@@H]1C — higher, -0.7
- CC(=O)N1c2ccc(-c3ccc(C(=O)NCCOCCOCCOCCOCC(=O)N[C@H](C(=O)N4C[C@H](O)C[C@H]4C(=O)NCc4ccc(-c5scnc5C)cc4)C(C)(C)C)cc3)cc2[C@H](Nc2ccc(Cl)cc2)C[C@@H]1C — higher, -0.7
- CC(=O)N[C@H](C(=O)N1C[C@H](O)C[C@H]1C(=O)NCc1ccc(-c2scnc2C)cc1)C(C)(C)SCCOCCOCCNC(=O)C[C@@H]1N=C(c2ccc(Cl)cc2)c2c(sc(C)c2C)-n2c(C)nnc21 — lower, -4.3
- Cc1ncsc1-c1ccc(CNC(=O)[C@@H]2C[C@@H](O)CN2C(=O)[C@@H](NC(=O)[C@H](Cc2ccccc2)NC(=O)COCCOCCOCCNC(=O)C[C@@H]2N=C(c3ccc(Cl)cc3)c3c(sc(C)c3C)-n3c(C)nnc32)C(C)(C)C)cc1 — the same, -1.6
- Cc1ncsc1-c1ccc(CNC(=O)[C@@H]2C[C@H](O)CN2C(=O)[C@@H](NC(=O)COCCOCCOCCOCCOCCOCC(=O)N[C@H](C(=O)N2C[C@@H](O)C[C@H]2C(=O)NCc2ccc(-c3scnc3C)cc2)C(C)(C)C)C(C)(C)C)cc1 — lower, -3.2
- Cc1ncsc1-c1ccc(CNC(=O)[C@@H]2C[C@@H](O)CN2C(=O)[C@@H](OC(=O)CCOCCOCCOCCNC(=O)Cc2ccccc2)C(C)(C)C)cc1 — the same, -1.6
- Cc1ncsc1-c1ccc(CNC(=O)[C@@H]2C[C@@H](O)CN2C(=O)[C@@H](NC(=O)CCOCCOCCOCCNC(=O)Cc2ccccc2)C(C)(C)C)cc1 — lower, -2.2
- Cc1ncsc1-c1ccc(CNC(=O)[C@@H]2C[C@@H](O)CN2C(=O)[C@@H](NC(=O)COCCOCCOCCOCCOCCOCC(=O)N[C@H](C(=O)N2C[C@H](O)C[C@H]2C(=O)NCc2ccc(-c3scnc3C)cc2)C(C)(C)C)C(C)(C)C)cc1 — lower, -4.3
- Cc1ncsc1-c1ccc(CNC(=O)[C@@H]2C[C@@H](O)CN2C(=O)[C@@H](NC(=O)Cc2ccccc2)C(C)(C)C)cc1 — higher, -0.7
- CC(=O)N[C@H](C(=O)N1C[C@H](O)C[C@H]1C(=O)NCc1ccc(-c2scnc2C)cc1)C(C)(C)SCCCCNC(=O)C[C@@H]1N=C(c2ccc(Cl)cc2)c2c(sc(C)c2C)-n2c(C)nnc21 — lower, -3.8

experiment: Permeability of the compound in phosphate buffer containing 5% DMSO at pH 7.4 incubated for 15 hrs by PAMPA based LC/MS analysis; format: ADME; conditions: pH 7.4, 15 h

With `Cc1ncsc1-c1ccc(CNC(=O)[C@@H]2C[C@@H](O)CN2C(=O)[C@@H](NC(=O)COCCOCCOCCOCC(=O)N[C@H](C(=O)N2C[C@H](O)C[C@H]2C(=O)NCc2ccc(-c3scnc3C)cc2)C(C)(C)C)C(C)(C)C)cc1` the Peff was 0.009 10^-6 cm/s.
For `Cc1ncsc1-c1ccc(CNC(=O)[C@@H]2C[C@@H](O)CN2C(=O)[C@@H](NC(=O)COCCOCCOCCOCCOCCOCC(=O)N[C@H](C(=O)N2C[C@H](O)C[C@H]2C(=O)NCc2ccc(-c3scnc3C)cc2)C(C)(C)C)C(C)(C)C)cc1`, the Peff was 0.005 10^-6 cm/s.
